Measured values as given in PubChem BioAssay (NCI).
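Assay format: 96-well plates, 48-hour exposure. The concentration for 50% growth inhibition is given as GI50. TGI is the concentration that stops growth completely.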

Columns and labels:
Test in all cases: inhibition of tumour cell growth, NCI panel, 48 h
ACHN renal = system: ACHN renal
T-47D breast = system: T-47D breast
OVCAR-8 ovarian = system: OVCAR-8 ovarian
TK-10 renal = system: TK-10 renal
SF-268 CNS = system: SF-268 CNS
SR leukemia = system: SR leukemia
MDA-MB-435 = system: MDA-MB-435
UACC-62 melanoma = system: UACC-62 melanoma
IGROV1 ovarian = system: IGROV1 ovarian
OVCAR-3 ovarian = system: OVCAR-3 ovarian

Compound | GI50 (ACHN renal) [µM] | TGI (ACHN renal) [µM] | GI50 (T-47D breast) [µM] | TGI (T-47D breast) [µM] | GI50 (OVCAR-8 ovarian) [µM] | TGI (OVCAR-8 ovarian) [µM] | GI50 (TK-10 renal) [µM] | TGI (TK-10 renal) [µM] | GI50 (SF-268 CNS) [µM] | TGI (SF-268 CNS) [µM] | GI50 (SR leukemia) [µM] | TGI (SR leukemia) [µM] | GI50 (MDA-MB-435) [µM] | TGI (MDA-MB-435) [µM] | GI50 (UACC-62 melanoma) [µM] | TGI (UACC-62 melanoma) [µM] | GI50 (IGROV1 ovarian) [µM] | TGI (IGROV1 ovarian) [µM] | GI50 (OVCAR-3 ovarian) [µM] | TGI (OVCAR-3 ovarian) [µM]
CC(=O)O[C@H]1CC[C@@]2(C)C(=C/C(=N/OCCN3CCCC3)[C@H]3[C@@H]4CC[C@H](OC(C)=O)[C@@]4(C)CC[C@@H]32)C1 | > 100 | > 100 | 52.1 | > 100 | > 100 | > 100 | 90.4 | > 100 | > 100 | > 100 | 10.4 | 44.1 | 53 | > 100 | 45.3 | > 100 | 31.4 | > 100 | > 100 | > 100
Cc1nc2ccccc2nc1N=Nc1ccccc1 | 16.9 | > 100 | 10.1 | 67.7 | 22.4 | > 100 | 48.8 | > 100 | 22.7 | > 100 | 19 | > 100 | 18.3 | 48.8 | 14.2 | 35.2 | 9.58 | > 100 | 12.9 | 82.1
CC(=O)OC1=CC2(OC(C)=O)CC(C)(C)C1C1C(=O)C=CC(=O)C12 (stereo not given) | – | 45.9 | – | > 100 | – | > 100 | – | > 100 | – | > 100 | – | > 100 | – | 53.4 | – | 56.7 | – | > 100 | – | > 100
Cn1cc(C2=C(Nc3ccccc3)C(=O)NC2=O)c2ccccc21 | > 25 | > 25 | 16.2 | > 25 | > 25 | > 25 | > 25 | > 25 | > 25 | > 25 | > 25 | > 25 | > 25 | > 25 | > 25 | > 25 | > 25 | > 25 | > 25 | > 25
C[C@@H](CO)NC(=O)c1cc(-c2ccc(Cl)cc2)nn(-c2cnn(C)c2)c1=O | 15.4 | 67.2 | 25.9 | > 100 | 26.3 | > 100 | 3.12 | 47 | 25.6 | > 100 | 18.2 | > 100 | 50.3 | > 100 | 14.5 | 31.7 | 20.2 | 82.1 | 45.5 | > 100
CC(=O)Nc1n[n+]([O-])c2cc(C)ccc2[n+]1[O-] | – | 11.2 | – | 11.4 | – | 16.3 | – | 58.1 | – | 19.7 | – | > 100 | – | 20.8 | – | 6.04 | – | 5.33 | – | 7.77
CCSC[C@@H]1C[C@](O)(c2ccc(F)cc2)[C@@H](c2ccc(F)cc2)O1 | 18.4 | 32.6 | 15 | 35.8 | 23.6 | > 64.6 | 19.2 | 34.5 | 14.7 | 29.6 | 12.9 | 30 | 17.7 | 37.8 | 13.4 | 27.4 | 14.5 | 32.8 | 19.2 | 37.1
CCN1C(=NCCO)NS(=O)(=O)c2ccccc21 | – | > 100 | – | > 100 | – | > 100 | – | > 100 | – | > 100 | – | > 100 | – | > 100 | – | > 100 | – | > 100 | – | > 100
CC1(C)O[C@@H]2C[C@H]3[C@@H]4C[C@H](F)C5=CC(=O)C=C[C@]5(C)[C@@]4(F)[C@@H](O)C[C@]3(C)[C@]2(C(=O)CO)O1 | – | > 100 | – | > 100 | – | > 100 | – | > 100 | – | > 100 | – | > 100 | – | > 100 | – | > 100 | – | > 100 | – | > 100
NC1(Cc2ccc(Cl)cc2)CCN(c2ncnc3[nH]ccc23)CC1 | 5.58 | 32.1 | 1.59 | 14.7 | 11.1 | 25.4 | 3.17 | 14.8 | 6.66 | 21.3 | 4.2 | 31.4 | 4.67 | 18.1 | 5.85 | 20.4 | 1.01 | 7.8 | 11.7 | 25
Cc1cc(O)c(C2=NN(c3ccc(S(N)(=O)=O)cc3)C(/C=C/c3ccccc3)C2)cc1Cl (stereo not given) | 5.27 | 21.9 | 3.38 | 14.7 | 3.03 | 20.2 | 14.8 | 29.9 | 5.63 | 19.5 | 12.7 | 33.8 | 8.87 | 24 | 2.89 | 11.4 | 4.32 | 19.8 | 11.5 | 28.4
O=C1c2cccnc2C(=O)c2c1c(C(=O)OCCCN1CCCCC1)c1ccccn21 | < 0.01 | 0.0171 | 1.1 | 21.5 | 0.0102 | 1.19 | 0.0272 | 4.18 | < 0.01 | 0.207 | < 0.01 | > 100 | 0.0142 | 0.0417 | < 0.01 | 0.0478 | 0.0309 | 0.686 | < 0.0218 | 0.156
CC(=O)/C=C/c1ccc(OCc2ccc(Cl)cc2)cc1 | > 1000 | > 1000 | 182 | > 1000 | 613 | > 1000 | 827 | > 1000 | 670 | > 1000 | 564 | > 1000 | 228 | > 1000 | 218 | > 1000 | > 1000 | > 1000 | > 1000 | > 1000
CC1OC(CC(=O)O)CC2=C1C(=O)c1c(O)cccc1C2=O (stereo not given) | – | 0.658 | – | 4.4 | – | 1.1 | – | 1.82 | – | 1.33 | – | 0.159 | – | 0.283 | – | 0.268 | – | 0.721 | – | 0.299
CN(C)c1cccc(F)c1C(=O)NC(=O)Nc1ccc(Cl)cc1 | – | > 100 | – | > 100 | – | > 86.4 | – | > 100 | – | > 100 | – | > 100 | – | 3.44 | – | > 100 | – | > 100 | – | > 100
CC1=Nc2c([nH]c(=S)[nH]c2=O)NC(c2c(Cl)cccc2Cl)C1 (stereo not given) | – | 11 | – | 3.21 | – | 1.85 | – | 18 | – | 3.96 | – | 1.68 | – | 2.88 | – | 4.45 | – | 5.45 | – | 4.16
C/C(=N\NC(=S)N1CCCCCC1)c1cccc2cccnc12 | – | 11.6 | – | 70.9 | – | > 100 | – | > 100 | – | > 100 | – | 14.5 | – | > 100 | – | 6.53 | – | > 94.1 | – | 0.567
COc1cc(C)c2sc3ccccc3c(=O)c2c1NCCN(C)C | 2.97 | 11.3 | 2.58 | 9.4 | 5.44 | 19.1 | 8.83 | 21.2 | 8.57 | 22.3 | 2.79 | 7.91 | 2.91 | 10.6 | 1.87 | 3.8 | 3.56 | 14.5 | 10.5 | 23.9
CCOC(=O)Nc1cc2ccccc2c(N=Nc2ccccc2)c1O | – | > 100 | – | > 100 | – | > 100 | – | > 100 | – | > 100 | – | > 100 | – | > 100 | – | > 100 | – | > 100 | – | > 100
COCCOCCOCc1n(Cc2ccc3ccccc3n2)c2ccccc2[n+]1Cc1ccc2ccccc2n1 | 13.7 | 81.7 | 0.302 | 13.1 | 1.27 | 12.6 | 4.02 | 16.2 | 0.903 | 16.2 | 0.663 | 11.8 | 0.387 | 10.8 | 0.424 | 10.2 | 0.645 | 11.8 | 0.479 | 13.8
